Test results published in patent US10670605B2, “Cysteine reactive probes and uses thereof” (The Scripps Research Institute, priority 2015, dated 2020).
“And” between values parts separate entries of the source, which are not always exact repeats. Identical values can stand only once.

How the values were obtained:
[1] = target: O114933_C98 (Homo sapiens, UniProt O14933); test: Competitive isoTOP-ABPP, cell lysates; assay type: binding
[2] = target: O00541_C272 (Homo sapiens, UniProt O00541); test: Competitive isoTOP-ABPP, cell lysates; assay type: binding
Sequence of O00541_C272 (O00541 whole entry, looked up): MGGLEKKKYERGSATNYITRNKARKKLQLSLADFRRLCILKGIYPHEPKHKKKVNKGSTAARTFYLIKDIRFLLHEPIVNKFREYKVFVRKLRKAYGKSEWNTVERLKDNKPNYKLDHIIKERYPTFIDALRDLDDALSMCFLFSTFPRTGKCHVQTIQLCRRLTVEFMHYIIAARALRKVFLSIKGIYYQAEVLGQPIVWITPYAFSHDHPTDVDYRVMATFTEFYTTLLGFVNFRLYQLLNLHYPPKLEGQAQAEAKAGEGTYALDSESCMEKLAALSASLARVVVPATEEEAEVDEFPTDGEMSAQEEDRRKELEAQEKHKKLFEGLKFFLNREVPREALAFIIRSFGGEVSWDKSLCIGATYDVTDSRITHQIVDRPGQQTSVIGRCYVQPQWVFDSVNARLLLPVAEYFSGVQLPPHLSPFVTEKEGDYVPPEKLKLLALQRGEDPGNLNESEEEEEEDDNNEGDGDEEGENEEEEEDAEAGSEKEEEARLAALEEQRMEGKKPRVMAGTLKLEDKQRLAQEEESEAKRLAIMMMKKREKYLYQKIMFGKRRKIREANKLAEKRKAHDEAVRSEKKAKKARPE

[3] = target: T1, ERCC3 C342 (P19447) (Homo sapiens, UniProt P19447); test: Competitive isoTOP-ABPP, cell lysates; assay type: binding; details: 500 μm in-vitro ramos_231
T1 sequence (P19447 1-782): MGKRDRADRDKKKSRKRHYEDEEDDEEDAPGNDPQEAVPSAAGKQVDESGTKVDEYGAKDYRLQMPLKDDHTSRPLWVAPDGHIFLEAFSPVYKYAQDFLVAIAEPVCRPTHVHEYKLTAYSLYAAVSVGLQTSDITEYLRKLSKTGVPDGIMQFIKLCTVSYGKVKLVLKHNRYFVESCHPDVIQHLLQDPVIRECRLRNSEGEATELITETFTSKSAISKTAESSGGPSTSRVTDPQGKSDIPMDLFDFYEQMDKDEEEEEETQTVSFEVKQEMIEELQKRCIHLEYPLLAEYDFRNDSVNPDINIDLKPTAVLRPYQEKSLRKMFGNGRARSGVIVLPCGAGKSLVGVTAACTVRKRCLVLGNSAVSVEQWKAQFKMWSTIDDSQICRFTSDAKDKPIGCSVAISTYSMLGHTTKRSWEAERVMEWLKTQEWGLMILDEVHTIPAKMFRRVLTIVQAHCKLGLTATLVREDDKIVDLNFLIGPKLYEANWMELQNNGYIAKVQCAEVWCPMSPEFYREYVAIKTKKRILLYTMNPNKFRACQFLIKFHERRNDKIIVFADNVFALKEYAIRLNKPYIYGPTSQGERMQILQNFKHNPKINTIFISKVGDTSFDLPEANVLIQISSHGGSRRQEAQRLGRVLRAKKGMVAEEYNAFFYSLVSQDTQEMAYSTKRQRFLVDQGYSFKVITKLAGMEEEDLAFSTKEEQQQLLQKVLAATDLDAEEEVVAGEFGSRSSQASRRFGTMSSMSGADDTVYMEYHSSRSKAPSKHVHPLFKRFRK

[4] = target: T2, cysteines in MDA-MB-231 and Ramos cells (Homo sapiens, UniProt P25205); test: Competitive isoTOP-ABPP in situ (fragment-treated cells); assay type: cell-based; details: 200 μM, insitu
T2 sequence (P25205 1-808): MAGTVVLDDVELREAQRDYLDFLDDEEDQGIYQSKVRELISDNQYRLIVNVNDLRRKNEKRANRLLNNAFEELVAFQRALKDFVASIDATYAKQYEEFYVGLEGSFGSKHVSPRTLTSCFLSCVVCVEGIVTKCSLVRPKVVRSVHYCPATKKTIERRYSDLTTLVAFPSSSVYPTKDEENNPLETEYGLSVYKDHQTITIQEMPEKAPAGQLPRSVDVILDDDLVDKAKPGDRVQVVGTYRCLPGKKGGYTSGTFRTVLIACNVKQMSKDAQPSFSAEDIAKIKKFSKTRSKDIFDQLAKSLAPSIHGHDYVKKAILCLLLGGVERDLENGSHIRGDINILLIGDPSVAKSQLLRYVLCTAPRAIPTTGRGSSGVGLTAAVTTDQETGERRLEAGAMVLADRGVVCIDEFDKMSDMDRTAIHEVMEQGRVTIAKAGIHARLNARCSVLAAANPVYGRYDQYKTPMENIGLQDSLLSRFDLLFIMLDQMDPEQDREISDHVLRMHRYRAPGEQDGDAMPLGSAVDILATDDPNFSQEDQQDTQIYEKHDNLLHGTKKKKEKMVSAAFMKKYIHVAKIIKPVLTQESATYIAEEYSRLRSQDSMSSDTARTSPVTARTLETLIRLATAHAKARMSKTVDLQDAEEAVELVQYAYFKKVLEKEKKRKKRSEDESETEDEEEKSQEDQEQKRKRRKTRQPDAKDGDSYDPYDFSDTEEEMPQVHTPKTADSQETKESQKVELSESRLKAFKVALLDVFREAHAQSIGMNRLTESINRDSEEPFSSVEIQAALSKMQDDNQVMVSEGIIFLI

[5] = target: T3, cysteines in MDA-MB-231 and Ramos cells (Homo sapiens, UniProt P42166); test: as above; assay type: cell-based; details: 200 μM, insitu
T3 sequence (P42166 1-694): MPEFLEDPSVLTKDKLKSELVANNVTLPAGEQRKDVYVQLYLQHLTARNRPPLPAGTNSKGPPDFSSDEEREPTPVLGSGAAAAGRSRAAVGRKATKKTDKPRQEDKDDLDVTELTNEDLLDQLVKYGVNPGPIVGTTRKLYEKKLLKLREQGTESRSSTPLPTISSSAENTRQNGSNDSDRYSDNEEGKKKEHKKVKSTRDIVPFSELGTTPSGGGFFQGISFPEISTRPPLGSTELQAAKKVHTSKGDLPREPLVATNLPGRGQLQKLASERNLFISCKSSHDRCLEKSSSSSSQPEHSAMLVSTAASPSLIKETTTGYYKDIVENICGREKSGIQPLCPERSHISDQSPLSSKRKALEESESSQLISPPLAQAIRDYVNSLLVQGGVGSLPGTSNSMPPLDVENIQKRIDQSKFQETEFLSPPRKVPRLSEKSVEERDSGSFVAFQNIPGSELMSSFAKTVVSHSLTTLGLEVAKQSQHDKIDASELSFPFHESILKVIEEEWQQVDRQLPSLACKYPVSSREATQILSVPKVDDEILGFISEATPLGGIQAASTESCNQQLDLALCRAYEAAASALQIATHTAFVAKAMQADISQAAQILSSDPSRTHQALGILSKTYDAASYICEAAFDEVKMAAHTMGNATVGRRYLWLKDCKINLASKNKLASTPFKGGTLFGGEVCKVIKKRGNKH

Sequence of O114933_C98 (O14933 whole entry): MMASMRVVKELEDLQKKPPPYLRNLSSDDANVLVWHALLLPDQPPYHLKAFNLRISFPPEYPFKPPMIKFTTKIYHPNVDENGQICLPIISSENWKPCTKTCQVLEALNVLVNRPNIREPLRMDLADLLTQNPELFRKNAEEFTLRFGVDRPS

| isoTOP-ABPP ratio (reactivity profile), O114933_C98 ([1]; 500 μm in-vitro ramos) | isoTOP-ABPP ratio (reactivity profile), O00541_C272 ([2]; 500 μm in-vitro ramos_231) | isoTOP-ABPP ratio (reactivity profile), O114933_C98 ([1]; 500 μm in-vitro ramos_231) | isoTOP-ABPP ratio (reactivity profile), P19447_C342 [3] | isoTOP-ABPP ratio (reactivity profile), O00541_C272 ([2]; 500 μm in-vitro ramos) | isoTOP-ABPP ratio P25205_C119 [4]; 231 | isoTOP-ABPP ratio P42166_C341 [5]; 231 | isoTOP-ABPP ratio P42166_C561 [5]; 231 | isoTOP-ABPP ratio P25205_C119 ([4]; ramos) | isoTOP-ABPP ratio P42166_C561 ([5]; ramos) | isoTOP-ABPP ratio P42166_C629 ([5]; ramos) | Compound |
| --- | --- | --- | --- | --- | --- | --- | --- | --- | --- | --- | --- |
| 1.2 | – | 0.7 | 1.6 | 2.0 | – | – | – | – | – | – | N#C/C(=C\c1cc(C(F)(F)F)cc(C(F)(F)F)c1)C(N)=O [compound 23] |
| 1.0 | 1.1 | 1.2 | 0.8 and 1.1 | – | 1.0 | 0.6 | 0.8 | – | – | – | CC(C)CCOCCNC(=O)CCl [compound 27] |
| – | 0.9 | – | 0.8 | – | – | – | – | 1.3 | 0.9 | 1.6 | O=C(CCl)N1CCN(CC(=O)N2CCOCC2)CC1 [compound 29] |

| Compound | isoTOP-ABPP ratio (reactivity profile), O114933_C98 ([1]; 500 μm in-vitro ramos) | isoTOP-ABPP ratio (reactivity profile), O00541_C272 ([2]; 500 μm in-vitro ramos_231) | isoTOP-ABPP ratio (reactivity profile), O114933_C98 ([1]; 500 μm in-vitro ramos_231) | isoTOP-ABPP ratio (reactivity profile), P19447_C342 [3] | isoTOP-ABPP ratio (reactivity profile), O00541_C272 ([2]; 500 μm in-vitro ramos) | isoTOP-ABPP ratio P25205_C119 [4]; 231 | isoTOP-ABPP ratio P42166_C341 [5]; 231 | isoTOP-ABPP ratio P42166_C561 [5]; 231 | isoTOP-ABPP ratio P25205_C119 ([4]; ramos) | isoTOP-ABPP ratio P42166_C561 ([5]; ramos) | isoTOP-ABPP ratio P42166_C629 ([5]; ramos) |
| --- | --- | --- | --- | --- | --- | --- | --- | --- | --- | --- | --- |
| O=C(CCl)N1CCOCC1 [compound 22] | 2.0 | 1.6 | – | – | – | – | – | – | – | – | – |
